For data set [1] the following is noted: adult humans; cited from earlier work.
Data set [2] has as its system IL-6 secretion by normal human bladder smooth muscle cells. The data set is described as follows: IL-6 ELISA of normal human bladder smooth muscle cell supernatants. Format: cell-based. To be noted: for IL-6 (pg/ml) Subject 1 / IL-6 (pg/ml) Subject 2: Carbachol 10^−3 M plus analgesic 50 μM; for IL-6 (pg/ml) Subject 1: carbachol alone 232, unstimulated <5, mean of duplicates; for IL-6 (pg/ml) Subject 2: carbachol alone 278, unstimulated <5; for effect on the effect of carbachol and LPS on IL-6 responses: LPS-induced responses: analgesic at either 5 μM or 50 μM. How it is done: (§1) Culture supernatants were subjected to cytokine-specific ELISA to determine IL-1β, IL-6 and TNF-α responses in cultures of macrophages treated with analgesic, LPS alone or a combination of LPS and analgesic. The assays were performed on Nunc MaxiSorp Immunoplates (Nunc) coated overnight with 100 μl of anti-mouse IL-6, TNF-α mAbs (BD Biosciences) or IL-1β mAb (R&D Systems) in 0.1 M sodium bicarbonate buffer (pH 9.5). After two washes with PBS (200 μl per well), 200 μl of PBS 3% BSA were added in each well (blocking) and the plates incubated for 2 hours at room temperature. Plates were washed again two times by addition of 200 μl per well, 100 μl of cytokine standards and serial dilutions of culture supernatants were added in duplicate and the plates were incubated overnight at 4° C. Finally, the plates were washed twice and incubated with 100 μl of secondary biotinylated anti-mouse IL-6, TNFα mAbs (BD Biosciences) or IL-1β (R&D Systems) followed by peroxidase-labelled goat anti-biotin mAb (Vector Laboratories). The colorimetric reaction was developed by the addition of 2,2′-azino-bis(3)-ethylbenzylthiazoline-6-sulfonic acid (ABTS) substrate and H2O2 (Sigma) and the absorbance measured at 415 nm with a Victor® V multilabel plate reader (PerkinElmer).
(§2) Normal human bladder smooth muscle cells were isolated by enzymatic digestion from macroscopically normal pieces of human bladder. Cells were expended in vitro by culture at 37° C. in a 5% CO2 atmosphere in RPMI 1640 supplemented with 10% fetal bovine serum, 15 mM HEPES, 2 mM L-glutamine, 100 U/ml penicillin, and […] of streptomycin and passage once a week by treatment with trypsin to detach cells followed by reseeding in a new culture flask. The first week of culture, the culture medium was supplemented with 0.5 ng/ml epidermal growth factor, 2 ng/ml fibroblast growth factor, and 5 μg/ml insulin.
(§3) Bladder smooth muscle cells trypsinized and seeded in microculture plates at a cell density of 3×10^4 cells per well in 100 μl were treated with analgesic solutions (50 μl/well) either alone or together carbachol (10-Molar, 50 μl/well), as an example of non-inflammatory stimuli, or lipopolysaccharide (LPS) of Salmonella typhimurium (1 μg/ml, 50 μl/well), as an example of […] stimuli. When no other effectors were added to the cells, 50 μl of RPMI 1640 without fetal bovine serum were added to the wells to adjust the final volume to 200 μl.
(§4) After 24 hours of culture, 150 μl of culture supernatants were collected, spun down for 2 min at 8,000 rpm at 4° C. to remove cells and debris and stored at −70° C. for analysis of Prostaglandin E2 (PGE2) responses by ELISA. Cells were fixed, permeabilized and blocked for detection of COX2 using a fluorogenic substrate. In selected experiment cells were stimulated 12 hours in vitro for analysis of COX2, PGE2 and cytokine responses.
(§5) COX2 and PGE2 responses were analyzed as described in Example 3. Cytokine responses were analyzed as described in Example 2.

Data set [3] concerns TNFα secretion by normal human bladder smooth muscle cells. The data set is described as follows: TNFα ELISA of normal human bladder smooth muscle cell supernatants. The format is cell-based.
Data set [4] concerns PGE2 secretion by mouse bladder cells. The data set is described as follows: PGE2 ELISA of mouse bladder cell culture supernatants. The format is cell-based. To be noted: for effect on the effect of LPS on PGE2 secretion: LPS (1 μg/ml), analgesic 5 or 50 μM. As to the method: Bladder cells were removed from euthanized animals C57BL/6 mice (8-12 weeks old) and cells were isolated by enzymatic digestion followed by purification on a Percoll gradient. […] Bladder slurries were enzymatically digested for 30 minutes at 37° C. Undigested fragments were further dispersed through a cell-trainer. The cell suspension was pelleted and added to a discontinue 20%, 40% and 75% Percoll gradient for purification on mononuclear cells. Each experiment used 50-60 bladders. […] Cells were cultured at 37° C. in a 5% CO2 atmosphere. Bladder cells were treated with analgesic solutions (50 well) either alone or together with carbachol (10-Molar, 50 μl/well), as an example of non-inflammatory stimuli, or lipopolysaccharide (LPS) of Salmonella typhimurium (1 μg/ml, 50 μl/well), as an example of […] stimuli. […] Cells were fixed, permeabilized and blocked for detection of Cyclooxygenase-2 (COX2) using a fluorogenic substrate. In selected experiment cells were stimulated 12 hours in vitro for analysis of COX2 responses […] More specifically, culture supernatants or PGE2 standards were added to the wells of a 96-well polystyrene microplate coated with a goat anti-mouse polyclonal antibody. After one hour incubation on a microplate shaker, an HRP-conjugated PGE2 was added and plates incubated for an additional two hours at room temperature. The plates were then washed and HRP substrate solution added to each well. The color was allowed to develop for 30 min and the reaction stopped by addition sulfuric acid before reading the plate at 450 nm with wavelength correction at 570 nm. Results are expressed as mean pg/ml of PGE2.
On the technique in general: ELISA stands for enzyme-linked immunosorbent assay.

Data set [5] concerns TNFα secretion by normal human bladder smooth muscle cells. The data set is described as follows: TNFα ELISA of normal human bladder smooth muscle cell supernatants. To be noted: for TNFα (pg/ml) Subject 2 / TNFα (pg/ml) Subject 1: Carbachol 10^−3 M plus analgesic 50 μM; for TNFα (pg/ml) Subject 2: carbachol alone 286, unstimulated <5; for TNFα (pg/ml) Subject 1: carbachol alone 350, unstimulated <5, mean of duplicates; for effect on the effect of carbachol and LPS on TNFα responses: LPS-induced responses: analgesic at either 5 μM or 50 μM. Format: cell-based. As to the method:
as §1, §2, §3, §4, §5

[6] abbreviates: LPS (10 μg/ml) plus analgesic 5 μM, LPS alone 4107.
Where [7] appears, read: LPS (10 μg/ml) plus analgesic 5 μM, LPS alone 5725, mean of duplicates.
Setting [8] is: LPS (10 μg/ml) plus analgesic 50 μM, LPS alone 4107.
Where [9] appears, read: LPS (10 μg/ml) plus analgesic 50 μM, LPS alone 5725, mean of duplicates.
The mark [10] stands for this setting: LPS (1 μg/ml) plus analgesic 5 μM, LPS alone 925 ± 55, unstimulated <20.5.
Setting [11] is: LPS (1 μg/ml) plus analgesic 50 μM, LPS alone 925 ± 55, unstimulated <20.5.
[12] abbreviates: stimulus alone, no analgesic (Carbachol 10^−3 M; LPS 10 μg/ml), unstimulated <5.

Regarding `COc1ccc2cc([C@H](C)C(=O)O)ccc2c1` [Naproxen], the “Maximum serum levels after oral therapeutic doses” value (from here on “Maximum serum levels”) in data set [1] is given as not above 60 mg/L. In data set [2], the “IL-6 (pg/ml) Subject 1” value came to 114 pg/mL. In addition, the “IL-6 (pg/ml) Subject 2” value in data set [2] stood at 127 pg/mL. In data set [2], the “effect on the effect of carbachol and LPS on IL-6 responses” value (“effect on the effect … on IL-6 responses” for short) is “suppress”. Further, the figures for the “TNFα (pg/ml) Subject 2” value in data set [3] (setting [6]), in data set [3] (setting [8]) and in data set [5] were 2215 pg/mL, 2192 pg/mL and 137 pg/mL, respectively. Further, the “TNFα (pg/ml) Subject 1” value in data set [3] (setting [7]) is 2591 pg/mL; in data set [3] (setting [9]), 2427 pg/mL; in data set [5], 129 pg/mL. In addition, the “PGE2 levels” value came to 597 ± 19 pg/mL in data set [4] (setting [10]) and 588 ± 37 pg/mL in data set [4] (setting [11]). In addition, the “effect on the effect of LPS on PGE2 secretion” value (shortened to “effect on the effect of LPS”) in data set [4] is recorded as “suppressed”. For the same molecule, the “effect on the effect of carbachol and LPS on TNFα responses” value (from here on “effect on the effect … on TNFα responses”) in data set [5] was “suppress”.
`CC(=O)Nc1ccc(O)cc1` [Acetaminophen, N-acetyl-para-aminophenol]: the “Maximum serum levels” value in data set [1] is 11 to 18 mg/L. The “IL-6 (pg/ml) Subject 1” value in data set [2] was 119 pg/mL. Besides, in data set [2], the “IL-6 (pg/ml) Subject 2” value is 135 pg/mL. Further, the “effect on the effect … on IL-6 responses” value in data set [2] is listed as “suppress”. The “TNFα (pg/ml) Subject 2” value in data set [3] (setting [6]) is 2267 pg/mL; in data set [3] (setting [8]) it was 2056 pg/mL; in data set [5], 164 pg/mL. The “TNFα (pg/ml) Subject 1” value turned out to be 2338 pg/mL in data set [3] (setting [7]), 2184 pg/mL in data set [3] (setting [9]) and 138 pg/mL in data set [5]. Further, the entries for the “PGE2 levels” value in data set [4] (setting [10]) and in data set [4] (setting [11]) were 619 ± 32 pg/mL and 600 ± 45 pg/mL, respectively. Also, the “effect on the effect of LPS” value in data set [4] is reported as “suppressed”. The “effect on the effect … on TNFα responses” value in data set [5] is given as “suppress”.
`C[N+](C)(C)CCOC(N)=O` [Carbachol, carbachol]: the “IL-6 responses to stimulus alone” value in data set [2] (no analgesic) is “induced low, but significant TNFα and IL-6 responses”. In data set [3] (setting [12]), the “TNFα (pg/ml) Subject 1” value is 350 pg/mL and the “TNFα (pg/ml) Subject 2” value stood at 286 pg/mL. Also, in data set [4] (stimulus alone, no analgesic (LPS 1 μg/ml, Carbachol (mM)), unstimulated <20.5), the “PGE2 levels” value was less than 20.5 pg/mL. Also, the “PGE2 levels (pg/ml)” value in data set [4] (stimulus alone, no analgesic (LPS 1 μg/ml, Carbachol (mM)), unstimulated <20.5, listed as carbachol) is listed as “not detected”. Also, the “TNFα responses to stimulus alone” value in data set [5] (no analgesic) was “induced low, but significant TNFα and IL-6 responses”.
Consider `CC(C)Cc1ccc(C(C)C(=O)O)cc1` (centres unmarked) [Ibuprofen, ibuprofen], for which the “Maximum serum levels” value in data set [1] was 24 to 32 mg/L. In addition, the “IL-6 (pg/ml) Subject 1” value in data set [2] amounted to 107 pg/mL. In data set [2], the “IL-6 (pg/ml) Subject 2” value was determined as 118 pg/mL. The “effect on the effect … on IL-6 responses” value in data set [2] is “suppress”. The “TNFα (pg/ml) Subject 2” value came to 2288 pg/mL in data set [3] (setting [6]), 1997 pg/mL in data set [3] (setting [8]) and 121 pg/mL in data set [5]. Besides, the “TNFα (pg/ml) Subject 1” value in data set [3] (setting [7]) turned out to be 2733 pg/mL; in data set [3] (setting [9]) it was 2603 pg/mL; in data set [5] it was 146 pg/mL. Also, the “PGE2 levels” value in data set [4] (setting [10]) was determined as 593 ± 46 pg/mL; in data set [4] (setting [11]), 568 ± 32 pg/mL. For the same molecule, in data set [4], the “effect on the effect of LPS” value is reported as “suppressed”. Also, the “effect on the effect … on TNFα responses” value in data set [5] is on record as “suppress”.
Regarding `CC(=O)Oc1ccccc1C(=O)O` [Aspirin, Acetylsalicylic acid], the “Maximum serum levels” value in data set [1] is 30 to 100 mg/L. Besides, the “IL-6 (pg/ml) Subject 1” value in data set [2] is 95 pg/mL. The “IL-6 (pg/ml) Subject 2” value in data set [2] worked out at 146 pg/mL. For the same molecule, the “effect on the effect … on IL-6 responses” value in data set [2] is “suppress”. The “TNFα (pg/ml) Subject 2” value is 2187 pg/mL in data set [3] (setting [6]), 2089 pg/mL in data set [3] (setting [8]) and 142 pg/mL in data set [5]. In addition, the “TNFα (pg/ml) Subject 1” value in data set [3] (setting [7]) worked out at 2479 pg/mL; in data set [3] (setting [9]), 2266 pg/mL; in data set [5] it was 110 pg/mL. Moreover, the “PGE2 levels” value in data set [4] (setting [10]) stood at 588 ± 21 pg/mL; in data set [4] (setting [11]) it was 571 ± 53 pg/mL. For the same molecule, in data set [4], the “effect on the effect of LPS” value is recorded as “suppressed”. In addition, in data set [5], the “effect on the effect … on TNFα responses” value was “suppress”.
